Source: ChEMBL document CHEMBL1201862, “PubChem BioAssay data set” (2004)
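Test compounds were applied to cells in 96-well plates for 48 hours at 5 doses. At the GI50, growth is halved.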 Active and inactive are the calls of the source. Rule as the data show it: active = GI50 up to about 1.1 µM and inactive = higher.

How the values were obtained:
Assay in all cases: NCI-60 cell line screen, 48 h
SK-MEL-5 = system: SK-MEL-5
NCI-H522 = system: NCI-H522
HT-29 = system: HT-29
UACC-257 = system: UACC-257
SN12C = system: SN12C
CCRF-CEM = system: CCRF-CEM
SR = system: SR
LOX IMVI = system: LOX IMVI
COLO 205 = system: COLO 205
NCI/ADR-RES = system: NCI/ADR-RES
SW-620 = system: SW-620
Malme-3M = system: Malme-3M
OVCAR-3 = system: OVCAR-3
A498 = system: A498
MDA-N = system: MDA-N
UO-31 = system: UO-31
KM12 = system: KM12
786-0 = system: 786-0
OVCAR-5 = system: OVCAR-5
IGROV-1 = system: IGROV-1
EKVX = system: EKVX
DU-145 = system: DU-145
U-251 = system: U-251
SF-295 = system: SF-295
CAKI-1 = system: CAKI-1
UACC-62 = system: UACC-62
OVCAR-8 = system: OVCAR-8
SNB-19 = system: SNB-19
MDA-MB-435 = system: MDA-MB-435
RPMI-8226 = system: RPMI-8226
A549 = system: A549
NCI-H23 = system: NCI-H23
HCC 2998 = system: HCC 2998
HL-60 = system: HL-60
M14 = system: M14
OVCAR-4 = system: OVCAR-4
MOLT-4 = system: MOLT-4
K562 = system: K562
HCT-116 = system: HCT-116
HOP-92 = system: HOP-92
ACHN = system: ACHN
SNB-75 = system: SNB-75
BT-549 = system: BT-549
RXF 393 = system: RXF 393
MCF7 = system: MCF7
SK-MEL-28 = system: SK-MEL-28
SK-MEL-2 = system: SK-MEL-2
NCI-H226 = system: NCI-H226
PC-3 = system: PC-3
HOP-62 = system: HOP-62
MDA-MB-231 = system: MDA-MB-231
SF-539 = system: SF-539
SK-OV-3 = system: SK-OV-3
HCT-15 = system: HCT-15
NCI-H460 = system: NCI-H460
T47D = system: T47D
TK-10 = system: TK-10
SF-268 = system: SF-268
Hs-578T = system: Hs-578T

Structure (SMILES): CSc1nc2c(c(=O)[nH]1)N=C(c1ccc([N+](=O)[O-])cc1)CC(c1ccccc1)N2 (stereo not drawn)
- GI50 (SK-MEL-5): 20.9 µM (inactive)
- GI50 (NCI-H522): 23.9 µM (inactive)
- GI50 (HT-29): 20.3 µM (inactive)
- GI50 (UACC-257): 44.9 µM (inactive)
- GI50 (SN12C): 54.8 µM (inactive)
- GI50 (CCRF-CEM): 29.2 µM (inactive)
- GI50 (SR): 62.4 µM (inactive)
- GI50 (LOX IMVI): 28.1 µM (inactive)
- GI50 (COLO 205): 55.1 µM (inactive)
- GI50 (NCI/ADR-RES): 30 µM (inactive)
- GI50 (SW-620): 22.9 µM (inactive)
- GI50 (Malme-3M): 55.5 µM (inactive)
- GI50 (OVCAR-3): 55.6 µM (inactive)
- GI50 (A498): > 100 µM (inactive)
- GI50 (MDA-N): 38.2 µM (inactive)
- GI50 (UO-31): 50 µM (inactive)
- GI50 (KM12): 17.9 µM (inactive)
- GI50 (786-0): 34.7 µM (inactive)
- GI50 (OVCAR-5): > 100 µM (inactive)
- GI50 (IGROV-1): 32.7 µM (inactive)
- GI50 (EKVX): 36.4 µM (inactive)
- GI50 (DU-145): 86.1 µM (inactive)
- GI50 (U-251): 33.6 µM (inactive)
- GI50 (SF-295): 51.1 µM (inactive)
- GI50 (CAKI-1): 89.1 µM (inactive)
- GI50 (UACC-62): 27.4 µM (inactive)
- GI50 (OVCAR-8): 34.5 µM (inactive)
- GI50 (SNB-19): > 100 µM (inactive)
- GI50 (MDA-MB-435): 28.2 µM (inactive)
- GI50 (RPMI-8226): 22 µM (inactive)
- GI50 (A549): 32.4 µM (inactive)
- GI50 (NCI-H23): 41.3 µM (inactive)
- GI50 (HCC 2998): 22.5 µM (inactive)
- GI50 (HL-60): 14.7 µM (inactive)
- GI50 (M14): 29.7 µM (inactive)
- GI50 (OVCAR-4): 28.7 µM (inactive)
- GI50 (MOLT-4): 31.3 µM (inactive)
- GI50 (K562): 34.4 µM (inactive)
- GI50 (HCT-116): 21.4 µM (inactive)
- GI50 (HOP-92): > 100 µM (inactive)
- GI50 (ACHN): 31.9 µM (inactive)
- GI50 (SNB-75): 22.7 µM (inactive)
- GI50 (BT-549): 37.7 µM (inactive)
- GI50 (RXF 393): 23.2 µM (inactive)
- GI50 (MCF7): 23.7 µM (inactive)
- GI50 (SK-MEL-28): 22.7 µM (inactive)
- GI50 (SK-MEL-2): 28.3 µM (inactive)
- GI50 (NCI-H226): > 100 µM (inactive)
- GI50 (PC-3): 49.4 µM (inactive)
- GI50 (HOP-62): > 100 µM (inactive)
- GI50 (MDA-MB-231): 32.3 µM (inactive)
- GI50 (SF-539): 29.2 µM (inactive)

Structure (SMILES): CC(=O)Nc1ccc(/C=C/C(=O)N2CC(CCl)c3c2cc(N)c2ccccc32)cc1 (stereo not drawn)
- GI50 (SK-MEL-5): < 0.005 µM (active)
- GI50 (NCI-H522): < 0.005 µM (active)
- GI50 (HT-29): < 0.005 µM (active)
- GI50 (UACC-257): 0.0156 µM (active)
- GI50 (SN12C): < 0.005 µM (active)
- GI50 (CCRF-CEM): < 0.005 µM (active)
- GI50 (SR): < 0.005 µM (active)
- GI50 (LOX IMVI): < 0.005 µM (active)
- GI50 (COLO 205): 0.00893 µM (active)
- GI50 (NCI/ADR-RES): < 0.005 µM (active)
- GI50 (SW-620): < 0.005 µM (active)
- GI50 (Malme-3M): < 0.005 µM (active)
- GI50 (OVCAR-3): 0.0127 µM (active)
- GI50 (A498): < 0.005 µM (active)
- GI50 (SK-OV-3): 0.0091 µM (active)
- GI50 (MDA-N): 0.00553 µM (active)
- GI50 (UO-31): < 0.005 µM (active)
- GI50 (KM12): 0.0064 µM (active)
- GI50 (786-0): < 0.005 µM (active)
- GI50 (OVCAR-5): < 0.005 µM (active)
- GI50 (HCT-15): < 0.005 µM
- GI50 (IGROV-1): < 0.005 µM (active)
- GI50 (NCI-H460): < 0.005 µM (active)
- GI50 (EKVX): 0.01 µM (active)
- GI50 (DU-145): < 0.005 µM (active)
- GI50 (U-251): < 0.005 µM (active)
- GI50 (SF-295): < 0.005 µM (active)
- GI50 (CAKI-1): < 0.005 µM (active)
- GI50 (UACC-62): < 0.005 µM (active)
- GI50 (OVCAR-8): < 0.005 µM (active)
- GI50 (SNB-19): < 0.005 µM (active)
- GI50 (MDA-MB-435): 0.00767 µM (active)
- GI50 (RPMI-8226): 0.0149 µM (active)
- GI50 (T47D): 0.01 µM (active)
- GI50 (A549): < 0.005 µM (active)
- GI50 (NCI-H23): < 0.005 µM (active)
- GI50 (HCC 2998): < 0.005 µM (active)
- GI50 (M14): < 0.005 µM (active)
- GI50 (OVCAR-4): 0.0226 µM (active)
- GI50 (MOLT-4): < 0.005 µM (active)
- GI50 (TK-10): < 0.005 µM (active)
- GI50 (K562): 0.0211 µM (active)
- GI50 (HCT-116): < 0.005 µM (active)
- GI50 (HOP-92): < 0.005 µM (active)
- GI50 (ACHN): < 0.005 µM (active)
- GI50 (SNB-75): 0.01 µM (active)
- GI50 (BT-549): 0.00624 µM (active)
- GI50 (RXF 393): < 0.005 µM (active)
- GI50 (MCF7): < 0.005 µM (active)
- GI50 (SK-MEL-28): 0.00641 µM (active)
- GI50 (SK-MEL-2): < 0.005 µM (active)
- GI50 (NCI-H226): < 0.005 µM (active)
- GI50 (SF-268): < 0.005 µM (active)
- GI50 (PC-3): < 0.005 µM (active)
- GI50 (HOP-62): < 0.005 µM (active)
- GI50 (MDA-MB-231): < 0.005 µM (active)
- GI50 (SF-539): < 0.005 µM (active)

Structure (SMILES): CC(=O)/N=C1/N(/C=C2\C(=O)Oc3ccccc3C2=O)C(=O)/C(=C/c2ccc(Cl)cc2Cl)N1C
- GI50 (SK-MEL-5): 10.9 µM (inactive)
- GI50 (NCI-H522): 94 µM (inactive)
- GI50 (HT-29): > 100 µM (inactive)
- GI50 (UACC-257): > 100 µM (inactive)
- GI50 (SN12C): > 100 µM (inactive)
- GI50 (CCRF-CEM): 66.8 µM (inactive)
- GI50 (SR): 17.4 µM (inactive)
- GI50 (LOX IMVI): 62.2 µM (inactive)
- GI50 (COLO 205): > 100 µM (inactive)
- GI50 (NCI/ADR-RES): > 100 µM (inactive)
- GI50 (SW-620): 50.6 µM (inactive)
- GI50 (Malme-3M): > 100 µM (inactive)
- GI50 (OVCAR-3): 59.2 µM (inactive)
- GI50 (A498): 19.2 µM (inactive)
- GI50 (SK-OV-3): > 100 µM (inactive)
- GI50 (KM12): 66.8 µM (inactive)
- GI50 (786-0): > 100 µM (inactive)
- GI50 (OVCAR-5): > 100 µM (inactive)
- GI50 (HCT-15): > 100 µM
- GI50 (IGROV-1): 40 µM (inactive)
- GI50 (NCI-H460): > 10 µM (inactive)
- GI50 (EKVX): 18.7 µM (inactive)
- GI50 (DU-145): > 100 µM (inactive)
- GI50 (U-251): 52.6 µM (inactive)
- GI50 (SF-295): > 100 µM (inactive)
- GI50 (CAKI-1): > 100 µM (inactive)
- GI50 (UACC-62): 26.2 µM (inactive)
- GI50 (OVCAR-8): > 100 µM (inactive)
- GI50 (MDA-MB-435): 34.2 µM (inactive)
- GI50 (RPMI-8226): 26.4 µM (inactive)
- GI50 (T47D): > 100 µM (inactive)
- GI50 (A549): 96.6 µM (inactive)
- GI50 (NCI-H23): > 100 µM (inactive)
- GI50 (HCC 2998): > 100 µM (inactive)
- GI50 (HL-60): 36.6 µM (inactive)
- GI50 (Hs-578T): 0.991 µM (active)
- GI50 (M14): > 100 µM (inactive)
- GI50 (OVCAR-4): > 100 µM (inactive)
- GI50 (MOLT-4): 40.7 µM (inactive)
- GI50 (K562): 39.4 µM (inactive)
- GI50 (HCT-116): 81.1 µM (inactive)
- GI50 (ACHN): > 100 µM (inactive)
- GI50 (SNB-75): 18.7 µM (inactive)
- GI50 (BT-549): 11.5 µM (inactive)
- GI50 (RXF 393): > 100 µM (inactive)
- GI50 (MCF7): > 100 µM (inactive)
- GI50 (SK-MEL-28): 73.8 µM (inactive)
- GI50 (SK-MEL-2): 71.4 µM (inactive)
- GI50 (NCI-H226): > 100 µM (inactive)
- GI50 (SF-268): 28.8 µM (inactive)
- GI50 (PC-3): > 100 µM (inactive)
- GI50 (HOP-62): 48.3 µM (inactive)
- GI50 (MDA-MB-231): > 100 µM (inactive)
- GI50 (SF-539): 25.6 µM (inactive)
